From ChEMBL document CHEMBL2429783, “Discovery of epigenetic regulator I-BET762: lead optimization to afford a clinical candidate inhibitor of the BET bromodomains” (J Med Chem, 2013)
≈ marks a conversion by molar mass, not a printed value.

What was measured:
physchem = details: FaSSIF, pH 6.5
Description: Solubility of the compound in FaSSIF at pH 6.5 after 16 hrs by HPLC analysis

[1] = target: Bromodomain-containing protein 3 (Homo sapiens, UniProt Q15059)
Description: Binding affinity to His6-tagged BRD3 (unknown origin) after 60 mins by fluorescence anisotropy binding Assay

[2] = Half life in buffer at pH 2 by HPLC analysis; format: physicochemical
PBMC = experiment: cells; details: Homo sapiens, read-out: pIC50 (converted)
Description: Antiinflammatory activity against human PBMC cells assessed as LPS-induced IL-6 production by chemiluminescence assay

[3] = target: Bromodomain-containing protein 2 (Homo sapiens, UniProt P25440)
Sequence of Bromodomain-containing protein 2 (P25440 whole entry): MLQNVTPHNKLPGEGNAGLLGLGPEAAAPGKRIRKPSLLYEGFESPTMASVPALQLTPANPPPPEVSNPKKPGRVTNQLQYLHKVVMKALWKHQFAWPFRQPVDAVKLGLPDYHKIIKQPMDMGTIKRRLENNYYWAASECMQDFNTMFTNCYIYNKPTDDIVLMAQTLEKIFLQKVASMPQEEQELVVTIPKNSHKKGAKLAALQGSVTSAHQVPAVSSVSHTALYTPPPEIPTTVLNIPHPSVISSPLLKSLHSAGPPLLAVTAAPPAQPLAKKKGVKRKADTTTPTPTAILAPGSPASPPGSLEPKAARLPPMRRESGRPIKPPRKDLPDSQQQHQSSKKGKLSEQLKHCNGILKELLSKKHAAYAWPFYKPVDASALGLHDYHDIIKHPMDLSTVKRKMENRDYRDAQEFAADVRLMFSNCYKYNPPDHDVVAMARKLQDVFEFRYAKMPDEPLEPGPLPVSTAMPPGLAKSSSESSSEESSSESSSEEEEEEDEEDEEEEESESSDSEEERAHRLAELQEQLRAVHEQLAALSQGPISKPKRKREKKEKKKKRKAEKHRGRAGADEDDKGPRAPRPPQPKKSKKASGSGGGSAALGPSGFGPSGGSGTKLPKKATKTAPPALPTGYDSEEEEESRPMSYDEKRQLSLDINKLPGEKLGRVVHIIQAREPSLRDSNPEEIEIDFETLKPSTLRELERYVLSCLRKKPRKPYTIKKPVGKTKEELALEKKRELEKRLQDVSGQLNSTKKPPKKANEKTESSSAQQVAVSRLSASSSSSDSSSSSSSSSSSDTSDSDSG
Description: Binding affinity to His6-tagged BRD2 (unknown origin) after 60 mins by fluorescence anisotropy binding Assay

Hepatocyte [4] = details: mouse, hepatocytes, 2 h
Description: Clearance in mouse hepatocytes after 120 mins by LC/MS/MS analysis

Hepatocyte [5] = details: human, hepatocytes, 2 h
Description: Clearance in human hepatocytes after 120 mins by LC/MS/MS analysis

[6] = Fraction unbound in human blood at 1000 ng/ml by equilibrium dialysis method; format: ADME, tissue-based
[7] = AUC (0 to infinity) in Balb/c mouse at 1 mg/kg, iv and 3 mg/kg, po after 1 hr; format: ADME, organism-based; details: plasma
[8] = cynomolgus monkey, microsomes, 0.5 h
Description: Clearance in cynomolgus monkey liver microsomes after 30 mins by LC/MS/MS analysis

[9] = Oral bioavailability in beagle dog at 3 mg/kg after 1 hr; format: ADME, organism-based, Canis lupus familiaris; details: in vivo
[10] = Volume of distribution in beagle dog at 1 mg/kg, iv and 3 mg/kg, po after 1 hr; format: ADME, organism-based, Canis lupus familiaris; details: in vivo
[11] = Fraction unbound in mouse blood at 1000 ng/ml by equilibrium dialysis method; format: ADME, tissue-based
Salmonella typhimurium [12] = experiment: Genotoxicity in Salmonella typhimurium TA98 by Ames test in presence of rat S9 mix; format: toxicity, organism-based; details: salmonella enterica subsp. enterica serovar typhimurium
[13] = Oral bioavailability in cynomolgus monkey at 5 mg/kg after 1 hr; format: ADME, organism-based, Macaca fascicularis; details: in vivo
[14] = Volume of distribution in CD rat at 1 mg/kg, iv and 3 mg/kg, po after 1 hr; format: ADME, organism-based; details: in vivo
[15] = Oral bioavailability in Balb/c mouse at 3 mg/kg after 1 hr; format: ADME, organism-based; details: in vivo
Liver microsomes [16] = details: human, 0.5 h
Description: Clearance in human liver microsomes after 30 mins by LC/MS/MS analysis

Liver [17] = details: mouse, microsomes, 0.5 h
Description: Clearance in mouse liver microsomes after 30 mins by LC/MS/MS analysis

[18] = dog, hepatocytes, 2 h
Description: Clearance in dog hepatocytes after 120 mins by LC/MS/MS analysis

Liver microsomes [19] = details: rat, 0.5 h
Description: Clearance in rat liver microsomes after 30 mins by LC/MS/MS analysis

Rattus norvegicus = experiment: Antiinflammatory activity against po dosed Sprague-Dawley rat immunoinflammatory model assessed as inhibition of KLH-induced ear swelling administered qd for 7 days measured 24 hrs post KLH challenge relative to control; format: functional, organism-based
Salmonella typhimurium [20] = experiment: Genotoxicity in Salmonella typhimurium TA1537 by Ames test in presence of rat S9 mix; format: toxicity, organism-based; details: salmonella enterica subsp. enterica serovar typhimurium
Salmonella typhimurium [21] = experiment: Genotoxicity in Salmonella typhimurium TA98 by Ames test; format: toxicity, organism-based; details: salmonella enterica subsp. enterica serovar typhimurium
[22] = Terminal half life in beagle dog at 1 mg/kg, iv after 1 hr; format: ADME, organism-based, Canis lupus familiaris; design: dose 1 mg/kg, route intravenous; details: in vivo, read-out: beta t1/2 (converted)
[23] = AUC (0 to infinity) in cynomolgus monkey at 2 mg/kg, iv and 5 mg/kg, po after 1 hr; format: ADME, organism-based, Macaca fascicularis; details: plasma
[24] = Terminal half life in Balb/c mouse at 1 mg/kg, iv after 1 hr; format: ADME, organism-based; design: dose 1 mg/kg, route intravenous; details: in vivo, read-out: beta t1/2 (converted)
[25] = AUC (0 to infinity) in beagle dog at 1 mg/kg, iv and 3 mg/kg, po after 1 hr; format: ADME, organism-based, Canis lupus familiaris; details: plasma
Liver [26] = details: dog, microsomes, 0.5 h
Description: Clearance in dog liver microsomes after 30 mins by LC/MS/MS analysis

Salmonella typhimurium [27] = experiment: Genotoxicity in Salmonella typhimurium TA1535 by Ames test; format: toxicity, organism-based; details: salmonella enterica subsp. enterica serovar typhimurium
[28] = Volume of distribution in cynomolgus monkey at 2 mg/kg, iv and 5 mg/kg, po after 1 hr; format: ADME, organism-based, Macaca fascicularis; details: in vivo
[29] = Fraction unbound in rat blood at 1000 ng/ml by equilibrium dialysis mehod; format: ADME, tissue-based
[30] = Terminal half life in cynomolgus monkey at 2 mg/kg, iv after 1 hr; format: ADME, organism-based, Macaca fascicularis; design: dose 2 mg/kg, route intravenous; details: in vivo, read-out: beta t1/2 (converted)
in vivo [31] = details: CD, rat, iv, 1 mg/kg
Salmonella typhimurium [32] = experiment: Genotoxicity in Salmonella typhimurium TA1535 by Ames test in presence of rat S9 mix; format: toxicity, organism-based; details: salmonella enterica subsp. enterica serovar typhimurium
in vivo [33] = details: Balb/c, mouse, iv, 1 mg/kg
[34] = Terminal half life in CD rat at 1 mg/kg, iv after 1 hr; format: ADME, organism-based; design: dose 1 mg/kg, route intravenous; details: in vivo, read-out: beta t1/2 (converted)
Salmonella typhimurium [35] = experiment: Genotoxicity in Salmonella typhimurium TA100 by Ames test in presence of rat S9 mix; format: toxicity, organism-based; details: salmonella enterica subsp. enterica serovar typhimurium
Hepatocyte [36] = details: rat, hepatocytes, 2 h
Description: Clearance in rat hepatocytes after 120 mins by LC/MS/MS analysis

[37] = AUC (0 to infinity) in CD rat at 1 mg/kg, iv and 3 mg/kg, po after 1 hr; format: ADME, organism-based; details: plasma
in vivo [38] = details: beagle, dog, iv, 1 mg/kg
[39] = cynomolgus monkey, hepatocytes, 2 h
Description: Clearance in cynomolgus monkey hepatocytes after 120 mins by LC/MS/MS analysis

[40] = Fraction unbound in dog blood at 1000 ng/ml by equilibrium dialysis method; format: ADME, tissue-based, Canis lupus familiaris
Salmonella typhimurium [41] = experiment: Genotoxicity in Salmonella typhimurium TA1537 by Ames test; format: toxicity, organism-based; details: salmonella enterica subsp. enterica serovar typhimurium
in vivo [42] = details: cynomolgus monkey, iv, 2 mg/kg
[43] = Volume of distribution in Balb/c mouse at 1 mg/kg, iv and 3 mg/kg, po after 1 hr; format: ADME, organism-based; details: in vivo
Salmonella typhimurium [44] = experiment: Genotoxicity in Salmonella typhimurium TA100 by Ames test; format: toxicity, organism-based; details: salmonella enterica subsp. enterica serovar typhimurium
[45] = Oral bioavailability in CD rat at 3 mg/kg after 1 hr; format: ADME, organism-based; details: in vivo
HepG2 = experiment: Upregulation of human apoA1 level in human HepG2 cells after 16 to 20 hrs by luciferase reporter gene assay; format: functional

Sequence of Bromodomain-containing protein 3 (Q15059 whole entry): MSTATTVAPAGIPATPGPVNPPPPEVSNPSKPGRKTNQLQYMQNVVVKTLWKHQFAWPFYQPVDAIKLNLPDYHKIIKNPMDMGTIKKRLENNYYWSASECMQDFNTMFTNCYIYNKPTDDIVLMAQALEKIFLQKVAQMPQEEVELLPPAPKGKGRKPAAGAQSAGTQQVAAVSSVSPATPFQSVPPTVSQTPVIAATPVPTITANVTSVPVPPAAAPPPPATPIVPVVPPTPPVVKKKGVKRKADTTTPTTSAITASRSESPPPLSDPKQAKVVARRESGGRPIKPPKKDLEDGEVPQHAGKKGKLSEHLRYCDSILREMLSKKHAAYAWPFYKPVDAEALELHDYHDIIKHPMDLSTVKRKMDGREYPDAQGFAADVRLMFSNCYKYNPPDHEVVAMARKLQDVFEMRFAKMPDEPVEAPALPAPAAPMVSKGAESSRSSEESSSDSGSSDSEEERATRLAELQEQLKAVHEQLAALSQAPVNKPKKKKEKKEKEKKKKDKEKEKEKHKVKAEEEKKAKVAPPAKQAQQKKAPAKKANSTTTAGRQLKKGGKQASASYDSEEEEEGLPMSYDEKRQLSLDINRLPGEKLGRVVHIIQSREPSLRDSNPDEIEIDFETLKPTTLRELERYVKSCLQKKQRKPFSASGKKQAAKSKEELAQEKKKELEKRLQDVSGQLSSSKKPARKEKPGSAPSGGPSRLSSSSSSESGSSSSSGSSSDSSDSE

CCCCOC(=O)C[C@@H]1N=C(c2ccc(Cl)cc2)c2cc(OC)ccc2-n2c(C)nnc21
solubility at 16 h (physchem): 104 µg/mL (≈ 230 µM)

Cc1nnc2n1-c1ccccc1C(c1ccccc1)=NC2NC(=O)OCc1ccc(F)cc1 (centres undefined)
IC50 [1]: 1000 nM | half-life [2]: 19.8 min | IC50 (PBMC): 316 nM | IC50 [3]: 2000 nM

CCNC(=O)C[C@@H]1N=C(c2ccc(Cl)cc2)c2ccc(OC)cc2-n2c(C)nnc21
IC50 (PBMC): 631 nM

COc1ccc2c(c1)C(c1ccc(Cl)cc1)=N[C@@H](CC(=O)Nc1ccccn1)c1nnc(C)n1-2
IC50 (PBMC): 316 nM | solubility at 16 h (physchem): 115 µg/mL (≈ 243 µM)

COc1ccccc1C1=NC(NC(=O)OCc2ccccc2)c2nnc(C)n2-c2ccccc21 (centres undefined)
IC50 (PBMC): 10000 nM | IC50 [3]: 10000 nM

CCOC(=O)N[C@@H]1N=C(c2ccccc2)c2ccccc2-n2c(C)nnc21
half-life [2]: 13.8 min | IC50 (PBMC): 200 nM

CCNC(=O)C[C@@H]1N=C(c2cccc(F)c2)c2cc(OC)ccc2-n2c(C)nnc21
solubility at 16 h (physchem): 116 µg/mL (≈ 285 µM)

COc1ccc2c(c1)C(c1ccccc1)=NC(NC(=O)OCc1ccccc1)c1nnc(C)n1-2 (centres undefined)
IC50 [1]: 794 nM | IC50 (PBMC): 126 nM | IC50 [3]: 794 nM

Cc1nnc2n1-c1ccc([N+](=O)[O-])cc1C(c1ccccc1)=NC2NC(=O)OCc1ccccc1 (centres undefined)
IC50 (PBMC): 2000 nM | IC50 [3]: 12600 nM

Cc1ccc(C2=NC(NC(=O)OCc3ccccc3)c3nnc(C)n3-c3ccccc32)cc1 (centres undefined)
IC50 [1]: 1000 nM | IC50 [3]: 1580 nM

COc1ccc2c(c1)C(c1ccc(Cl)cc1)=N[C@@H](CC(=O)Nc1ccc(F)cc1)c1nnc(C)n1-2
IC50 (PBMC): 2000 nM | solubility at 16 h (physchem): 105 µg/mL (≈ 214 µM)

CCNC(=O)C[C@@H]1N=C(c2ccc(Cl)cc2)c2cc(OC)ccc2-n2c(C)nnc21 [MOLIBRESIB]
CLH (Hepatocyte [4]): < 0.86 mL/min/g | CLH (Hepatocyte [5]): < 0.86 mL/min/g | fraction unbound at 1000 ng/ml [6]: 0.19 | AUC(0-inf) [7]: 468 ng·h/mL | CLH [8]: 0.2 mL/min/g | bioavailability [9]: 44% | Vd [10]: 1.8 L/kg | fraction unbound at 1000 ng/ml [11]: 0.21 | Activity (Salmonella typhimurium [12]): Non-toxic | bioavailability [13]: 52% | Vd [14]: 1.8 L/kg | bioavailability [15]: 61% | CLH (Liver microsomes [16]): < 0.53 mL/min/g | CLH (Liver [17]): < 0.53 mL/min/g | CLH [18]: < 1.7 mL/min/g | CLH (Liver microsomes [19]): 1.45 mL/min/g | Activity (Rattus norvegicus): Dose-dependent effect | Activity (Salmonella typhimurium [20]): Non-toxic | Activity (Salmonella typhimurium [21]): Non-toxic | IC50 (PBMC): 316 nM | half-life [22]: 354 min | AUC(0-inf) [23]: 3340 ng·h/mL | half-life [24]: 90 min | AUC(0-inf) [25]: 4740 ng·h/mL | CLH (Liver [26]): 0.69 mL/min/g | Activity (Salmonella typhimurium [27]): Non-toxic | Vd [28]: 1.5 L/kg | fraction unbound at 1000 ng/ml [29]: 0.18 | half-life [30]: 90 min | clearance at 1 h (in vivo [31]): 63 mL/min/kg | Activity (Salmonella typhimurium [32]): Non-toxic | clearance at 1 h (in vivo [33]): 75 mL/min/kg | half-life [34]: 30 min | Activity (Salmonella typhimurium [35]): Non-toxic | CLH (Hepatocyte [36]): < 0.86 mL/min/g | AUC(0-inf) [37]: 201 ng·h/mL | clearance at 1 h (in vivo [38]): 5 mL/min/kg | CLH [39]: < 0.085 mL/min/g | fraction unbound at 1000 ng/ml [40]: 0.24 | Activity (Salmonella typhimurium [41]): Non-toxic | clearance at 1 h (in vivo [42]): 14 mL/min/kg | Vd [43]: 6.5 L/kg | Activity (Salmonella typhimurium [44]): Non-toxic | bioavailability [45]: 27%

COc1ccc2c(c1)C(c1ccc(Cl)cc1)=N[C@@H](CC(=O)O)c1nnc(C)n1-2
IC50 (PBMC): > 100000 nM | solubility at 16 h (physchem): 113 µg/mL (≈ 285 µM)

Cc1nnc2n1-c1ccccc1C(c1ccccc1)=NC2NC(=O)OCc1ccccc1 (centres undefined)
half-life [2]: 34.8 min | IC50 (PBMC): 158 nM | EC170 (HepG2): 0.22 µM

CCOC(=O)NC1N=C(c2ccc(Cl)cc2)c2ccccc2-n2c(C)nnc21 (centres undefined)
IC50 [1]: 1260 nM | half-life [2]: 45 min | IC50 [3]: 2510 nM

Cc1nnc2n1-c1ccccc1C(c1ccccc1)=NC2NC(=O)CCc1ccccc1 (centres undefined)
IC50 [1]: 3160 nM | IC50 [3]: 15800 nM

Cc1nnc2n1-c1ccc(Cl)cc1C(c1ccccc1)=NC2NC(=O)OCc1ccccc1 (centres undefined)
IC50 [1]: 1580 nM | IC50 (PBMC): 631 nM | IC50 [3]: 3160 nM

Cc1nnc2n1-c1ccccc1C(c1ccccc1)=NC2CC(=O)NCc1ccccc1 (centres undefined)
IC50 [1]: 2000 nM | half-life [2]: > 120 min | IC50 (PBMC): 5010 nM | solubility at 16 h (physchem): 1 µg/mL (≈ 2.37 µM) | IC50 [3]: 2510 nM

Cc1nnc2n1-c1ccccc1C(c1ccccc1)=NC2NC(=O)NCc1ccccc1 (centres undefined)
IC50 [1]: 794 nM | IC50 (PBMC): 398 nM | IC50 [3]: 2000 nM

COc1ccc(C2=NC(NC(=O)OCc3ccccc3)c3nnc(C)n3-c3ccccc32)cc1 (centres undefined)
IC50 [1]: 1000 nM | IC50 (PBMC): 316 nM | IC50 [3]: 2000 nM

CCOC(=O)NC1N=C(c2ccccc2)c2ccccc2-n2c(C)nnc21 (centres undefined)
half-life [2]: 33.6 min

Cc1nnc2n1-c1ccccc1C(c1ccccc1)=NC2NS(=O)(=O)Cc1ccccc1 (centres undefined)
IC50 (PBMC): 15800 nM | IC50 [3]: 31600 nM

COc1cccc(C2=NC(NC(=O)OCc3ccccc3)c3nnc(C)n3-c3ccccc32)c1 (centres undefined)
IC50 (PBMC): 501 nM | IC50 [3]: 3160 nM

Cc1nnc2n1-c1ccccc1C(c1ccccc1)=NC2NC(=O)Oc1cccc(F)c1 (centres undefined)
IC50 [1]: 1260 nM | IC50 [3]: 3160 nM

Cc1ccc2c(c1)-n1c(C)nnc1C(NC(=O)OCc1ccccc1)N=C2c1ccccc1 (centres undefined)
IC50 [1]: 1260 nM | IC50 (PBMC): 631 nM | IC50 [3]: 2510 nM

COC(=O)C[C@@H]1N=C(c2ccc(Cl)cc2)c2cc(OC)ccc2-n2c(C)nnc21
IC50 (PBMC): 126 nM | solubility at 16 h (physchem): 115 µg/mL (≈ 280 µM)

COc1ccc2c(c1)C(c1ccc(Cl)cc1)=N[C@@H](CC(=O)Nc1cccnc1)c1nnc(C)n1-2
solubility at 16 h (physchem): 95 µg/mL (≈ 201 µM)

COc1ccc2c(c1)C(c1ccc(Cl)cc1)=N[C@@H](CC(=O)NCC1CC1)c1nnc(C)n1-2
solubility at 16 h (physchem): 111 µg/mL (≈ 247 µM)
